# Source: ChEMBL document CHEMBL1153603, “Phenethyl pyridines with non-polar internal substituents as selective ligands for estrogen receptor beta” (Eur J Med Chem, 2009)
# pEC50: −log10 of the molar value.
# Legend:
# Estrogen receptor = biological target: T1, Estrogen receptor (Homo sapiens, UniProt P03372); test: Activity at human ERalpha expressed in HEC1 cells co-transfected with 2ERE-pS2-Luc assessed as relative transcriptional potency by luciferase reporter assay; format: cell-based, HEC-1
# T1 sequence (P03372 whole entry): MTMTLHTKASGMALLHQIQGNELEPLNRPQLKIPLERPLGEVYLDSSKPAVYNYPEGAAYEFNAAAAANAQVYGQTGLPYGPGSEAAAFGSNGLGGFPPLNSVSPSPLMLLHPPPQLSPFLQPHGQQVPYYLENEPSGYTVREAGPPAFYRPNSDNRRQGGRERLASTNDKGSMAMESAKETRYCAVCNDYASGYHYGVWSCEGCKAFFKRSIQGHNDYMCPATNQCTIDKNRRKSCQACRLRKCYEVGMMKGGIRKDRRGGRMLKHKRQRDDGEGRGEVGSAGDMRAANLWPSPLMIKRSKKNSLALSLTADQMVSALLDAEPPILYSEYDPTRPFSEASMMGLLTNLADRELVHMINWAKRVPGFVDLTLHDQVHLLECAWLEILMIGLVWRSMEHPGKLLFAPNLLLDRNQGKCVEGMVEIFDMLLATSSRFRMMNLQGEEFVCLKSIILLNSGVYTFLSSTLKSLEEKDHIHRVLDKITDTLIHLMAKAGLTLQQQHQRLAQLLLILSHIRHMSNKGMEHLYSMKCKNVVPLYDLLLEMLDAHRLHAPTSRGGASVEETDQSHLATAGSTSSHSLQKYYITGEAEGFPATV
# Estrogen receptor beta [1] = biological target: T2, Estrogen receptor beta (Homo sapiens, UniProt Q92731); test: Displacement of [3H]estradiol form human ERbeta receptor assessed as relative binding affinity by competitive radiometric binding assay relative to estradiol
# Estrogen receptor beta [2] = biological target: T2, Estrogen receptor beta; test: Activity at human ERbeta expressed in HEC1 cells co-transfected with 2ERE-pS2-Luc assessed as relative transcriptional potency by luciferase reporter assay relative to estradiol; format: cell-based; conditions: HEC-1
# Estrogen receptor beta [3] = biological target: T2, Estrogen receptor beta; test: Activity at human ERbeta expressed in HEC1 cells co-transfected with 2ERE-pS2-Luc assessed as relative transcriptional potency by luciferase reporter assay; format: cell-based, HEC-1
# T2 sequence (Q92731 whole entry): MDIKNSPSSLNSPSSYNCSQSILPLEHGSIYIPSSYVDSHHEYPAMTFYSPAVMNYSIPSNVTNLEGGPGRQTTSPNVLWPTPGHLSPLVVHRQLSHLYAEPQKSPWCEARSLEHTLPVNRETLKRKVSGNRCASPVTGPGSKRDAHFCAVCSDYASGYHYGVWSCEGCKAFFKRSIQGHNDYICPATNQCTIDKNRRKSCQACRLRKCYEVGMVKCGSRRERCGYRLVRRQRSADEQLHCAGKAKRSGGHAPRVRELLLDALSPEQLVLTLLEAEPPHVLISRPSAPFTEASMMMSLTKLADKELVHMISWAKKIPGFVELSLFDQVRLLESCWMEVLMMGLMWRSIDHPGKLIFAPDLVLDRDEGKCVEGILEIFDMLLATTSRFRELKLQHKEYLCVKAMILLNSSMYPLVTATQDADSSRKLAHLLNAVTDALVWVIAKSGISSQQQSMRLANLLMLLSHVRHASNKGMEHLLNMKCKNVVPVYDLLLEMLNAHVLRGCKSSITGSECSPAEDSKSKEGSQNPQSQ
Structure (SMILES),pEC50 (Estrogen receptor),RBA (Estrogen receptor beta [1]) [%],Activity (Estrogen receptor beta [2]) [%],pEC50 (Estrogen receptor beta [3])
CCC(Cc1ccc(O)cn1)c1ccc(O)cc1 (stereo not given),–,0.15,–,–
Oc1ccc(CCc2ccc(O)cn2)cc1,–,0.025,–,–
CC(Cc1ccc(O)cc1)c1ccc(O)cn1 (stereo not given),6.48,0.27,0.83,7.22
CC[C@H](c1ccc(O)cn1)[C@@H](C)c1ccc(O)cc1 (relative stereo),9.96,5.3,45,8.96
CCCC(Cc1ccc(O)cc1)c1ccc(O)cn1 (stereo not given),–,0.101,–,–
CCC(Cc1ccc(O)cc1)c1ccc(O)cn1 (stereo not given),7.19,0.72,2.94,7.77
CC(Cc1ccc(O)cn1)c1ccc(O)cc1 (stereo not given),6.36,0.17,0.29,6.77
CC[C@H](c1ccc(O)cn1)[C@H](C)c1ccc(O)cc1 (relative stereo),–,0.119,–,–

# The next lines start with the values.
pEC50 (Estrogen receptor),RBA (Estrogen receptor beta [1]) [%],Activity (Estrogen receptor beta [2]) [%],pEC50 (Estrogen receptor beta [3]),Structure (SMILES)
7.80,0.67,1.9,7.59,CC[C@H](c1ccc(O)cc1)[C@H](CC)c1ccc(O)cn1 (relative stereo)
–,0.023,–,–,CC[C@H](c1ccccc1)[C@H](CC)c1ccc(O)cn1
–,0.684,–,–,CC[C@H](c1ccc(O)cn1)[C@@H](CC)c1ccccc1
9.96,7.5,82,9.21,CC[C@H](c1ccc(O)cn1)[C@@H](CC)c1ccc(O)cc1 (relative stereo)
